According to patent EP3262942A1, “SELENODIARYLS FOR USE AS MICROBICIDE OR AS MEDICINE” (Evonik Degussa GmbH, priority 2016, dated 2018):

Legend:
[1] = test system: M. grisea H2O; assay: microbe, parasite or virus in culture; type: cell-based, Magnaporthe grisea; settings: Pyricularia grisea, H2O, 24 h, read-out: Aktivität gegenüber M. grisea H2O
[2] = test system: P. infestans; assay: microbe, parasite or virus in culture; type: cell-based, Phytophthora infestans; settings: for inhibition of growth at 5 µg/mL / inhibition of growth at 10 µg/mL / inhibition of growth at 25 µg/mL / inhibition of growth at 50 µg/mL: Phytophthora infestans, 24 h, read-out: Aktivität gegenüber P. infestans
[3] = test system: Candida albicans; assay: Growth test in microtiter plates, HA medium, 24 h, visual evaluation; type: cell-based; set-up: key: +: kein Wachstum im Vergleich zur Wachstumskontrolle; -: Wachstum wie Wachstumskontrolle
[4] = test system: Paecilomyces variotii; assay: as above; type: cell-based; set-up: key: +: kein Wachstum im Vergleich zur Wachstumskontrolle; -: Wachstum wie Wachstumskontrolle
[5] = test system: alle getesteten Pathogene; type: cell-based; settings: 5-50 µg/mL
[6] = test system: Mucor miehei; assay: Growth test in microtiter plates, HA medium, 24 h, visual evaluation; type: cell-based; set-up: key to Aktivität gegenüber M. miehei: +: kein Wachstum im Vergleich zur Wachstumskontrolle; -: Wachstum wie Wachstumskontrolle
[7] = test system: Lepidium sativum; assay: Crop plant growth test, seeds on filter discs, 4 days, visual evaluation; type: in vivo
Experimental: (§1) Testsubstanzen und Kontrollen werden auf Filterrondellen in Mikrotiterplatten (48 well) vorgelegt und das verwendete Lösungsmittel (DMSO) über Lyophilisation entfernt. Anschließend werden ca. 12 Samen pro Vertiefung (Setaria italical Lepidium sativum) zugeben, mit 200 µl sterilem Leitungswasser pro Vertiefung versetzt, mit einem Deckel versehen und in einer feuchten Kammer für 4 Tage im Pflanzenbrutschrank inkubiert (16h-Licht-8h-Dunkel-Rhythmus). Die Auswertung des Tests erfolgt optisch (+: mind. 75 % Wachstumshemmung im Vergleich zur Kontrolle, -: weniger als 75 % Wachstumshemmung im Vergleich zur Kontrolle.

[8] = test system: Setaria italica; assay: as above; type: in vivo
Experimental: as §1

[9] = test system: Botrytis cinerea; assay: microbe, parasite or virus in culture; type: cell-based; settings: for inhibition of growth at 5 µg/mL / inhibition of growth at 10 µg/mL / inhibition of growth at 25 µg/mL / inhibition of growth at 50 µg/mL: Botrytis cinerea, 24 h, read-out: Aktivität gegenüber B. cinerea
[10] = test system: Penicillium notatum; assay: Growth test in microtiter plates, HA medium, 24 h, visual evaluation; type: cell-based; set-up: key: +: kein Wachstum im Vergleich zur Wachstumskontrolle; -: Wachstum wie Wachstumskontrolle
[11] = test system: M. grisea CM; assay: microbe, parasite or virus in culture; type: cell-based, Magnaporthe grisea; settings: Pyricularia grisea, 24 h, read-out: Aktivität gegenüber M. grisea CM

Row | Compound | inhibition of growth at 5 µg/mL [1] [%] | inhibition of growth at 10 µg/mL [1] [%] | inhibition of growth at 25 µg/mL [1] [%] | inhibition of growth at 50 µg/mL [1] [%] | inhibition of growth at 5 µg/mL [2] [%] | inhibition of growth at 10 µg/mL [2] [%] | inhibition of growth at 25 µg/mL [2] [%] | inhibition of growth at 50 µg/mL [2] [%] | Aktivität gegenüber C. albicans ([3]; 10µg/mL) | Aktivität gegenüber C. albicans ([3]; 50µg/mL) | Aktivität gegenüber P. variotii ([4]; 10µg/mL) | Aktivität gegenüber P. variotii ([4]; 50µg/mL) | Aktivität im Wachstums- und Keimungshemmungstest gegen die getesteten Pathogene [5] | Aktivität gegenüber M. miehei ([6]; 10µg/mL) | Aktivität gegenüber M. miehei ([6]; 50µg/mL) | Aktivität gegenüber Nutzpflanzen: L. sativum ([7]; 10µg/R) | Aktivität gegenüber Nutzpflanzen: L. sativum ([7]; 20µg/R) | Aktivität gegenüber Nutzpflanzen: L. sativum ([7]; 50µg/R) | Aktivität gegenüber Nutzpflanzen: S. italica ([8]; 10µg/R) | Aktivität gegenüber Nutzpflanzen: S. italica ([8]; 20µg/R) | further results
1 | CCc1cc([Se]c2cc(CC)cc(C(C)(C)C)c2O)c(O)c(C(C)(C)C)c1 [Verbindung 15, Bis(3-tert-butyl-5-ethyl-2-hydroxyphenyl)selen] | 0 to 25 | 0 to 25 | 0 to 25 | 0 to 25 | 0 to 25 | 0 to 25 | 0 to 25 | 0 to 25 | - | - | - | - | weder im Wachstums- noch im Keimungshemmungstest im verwendeten Konzentrationsbereich eine entsprechende Aktivität | - | - | - (weniger als 75 % Wachstumshemmung im Vergleich zur Kontrolle) | - (weniger als 75 % Wachstumshemmung im Vergleich zur Kontrolle) | - (weniger als 75 % Wachstumshemmung im Vergleich zur Kontrolle) | - (weniger als 75 % Wachstumshemmung im Vergleich zur Kontrolle) | - (weniger als 75 % Wachstumshemmung im Vergleich zur Kontrolle) | Aktivität gegenüber Nutzpflanzen: S. italica ([8]; 50µg/R): - (weniger als 75 % Wachstumshemmung im Vergleich zur Kontrolle); inhibition of growth at 5 µg/mL [9]: 0 to 25%; inhibition of growth at 10 µg/mL [9]: 0 to 25%; inhibition of growth at 25 µg/mL [9]: 0 to 25%; inhibition of growth at 50 µg/mL [9]: 0 to 25%; Aktivität gegenüber P. notatum ([10]; 10µg/mL): -; Aktivität gegenüber P. notatum ([10]; 50µg/mL): -; inhibition of growth at 5 µg/mL [11]: 0 to 25%; inhibition of growth at 10 µg/mL [11]: 0 to 25%; inhibition of growth at 25 µg/mL [11]: 0 to 25%; inhibition of growth at 50 µg/mL [11]: 0 to 25%
2 | CCC(C)(C)c1cc([Se]c2cc(C(C)(C)CC)cc(C(C)(C)CC)c2O)c(O)c(C(C)(C)CC)c1 [Verbindung 16, Bis(3,5-di(1,1-dimethylpropyl)-2-hydroxyphenyl)selen] | 0 to 25 | 0 to 25 | 0 to 25 | 0 to 25 | 0 to 25 | 0 to 25 | 0 to 25 | 0 to 25 | - | - | - | - | weder im Wachstums- noch im Keimungshemmungstest im verwendeten Konzentrationsbereich eine entsprechende Aktivität | - | - | - (weniger als 75 % Wachstumshemmung im Vergleich zur Kontrolle) | - (weniger als 75 % Wachstumshemmung im Vergleich zur Kontrolle) | - (weniger als 75 % Wachstumshemmung im Vergleich zur Kontrolle) | - (weniger als 75 % Wachstumshemmung im Vergleich zur Kontrolle) | - (weniger als 75 % Wachstumshemmung im Vergleich zur Kontrolle) | Aktivität gegenüber Nutzpflanzen: S. italica ([8]; 50µg/R): - (weniger als 75 % Wachstumshemmung im Vergleich zur Kontrolle); inhibition of growth at 5 µg/mL [9]: 0 to 25%; inhibition of growth at 10 µg/mL [9]: 0 to 25%; inhibition of growth at 25 µg/mL [9]: 0 to 25%; inhibition of growth at 50 µg/mL [9]: 0 to 25%; Aktivität gegenüber P. notatum ([10]; 10µg/mL): -; Aktivität gegenüber P. notatum ([10]; 50µg/mL): -; inhibition of growth at 5 µg/mL [11]: 0 to 25%; inhibition of growth at 10 µg/mL [11]: 0 to 25%; inhibition of growth at 25 µg/mL [11]: 0 to 25%; inhibition of growth at 50 µg/mL [11]: 0 to 25%
3 | Cc1cc([Se]c2cc(C)c(O)c(C)c2)cc(C)c1O [Verbindung 19, Bis(3,5-dimethyl-4-hydroxyphenyl)selen] | > 75 | > 75 | > 75 | > 75 | 0 to 25 | 50 to 75 | 50 to 75 | 0 to 25 | - | - | - | - | deutliche Aktivität gegenüber allen getesteten Pathogenen, mit Ausnahme von C. albicans | + | + | - (weniger als 75 % Wachstumshemmung im Vergleich zur Kontrolle) | - (weniger als 75 % Wachstumshemmung im Vergleich zur Kontrolle) | - (weniger als 75 % Wachstumshemmung im Vergleich zur Kontrolle) | + (mind. 75 % Wachstumshemmung im Vergleich zur Kontrolle) | + (mind. 75 % Wachstumshemmung im Vergleich zur Kontrolle) | Aktivität gegenüber Nutzpflanzen: S. italica ([8]; 50µg/R): + (mind. 75 % Wachstumshemmung im Vergleich zur Kontrolle); Effekt auf S. italica ([8]; […]): wachstumshemmenden Effekt; mikrobizide Wirksamkeit gegenüber B. cinerea [9]: mikrobizide Wirksamkeit; inhibition of growth at 5 µg/mL [9]: 25 to 50%; inhibition of growth at 10 µg/mL [9]: > 75%; inhibition of growth at 25 µg/mL [9]: > 75%; inhibition of growth at 50 µg/mL [9]: 0 to 25%; Aktivität gegenüber P. notatum ([10]; 10µg/mL): -; Aktivität gegenüber P. notatum ([10]; 50µg/mL): +; inhibition of growth at 5 µg/mL [11]: > 75%; inhibition of growth at 10 µg/mL [11]: > 75%; inhibition of growth at 25 µg/mL [11]: > 75%; inhibition of growth at 50 µg/mL [11]: > 75%
4 | COc1cc(OC)c([Se]c2cc(OC)c(OC)cc2OC)cc1OC [Verbindung 26, Bis(2,4,5-trimethoxyphenyl)selen] | 25 to 50 | > 75 | > 75 | > 75 | 0 to 25 | 0 to 25 | 0 to 25 | 0 to 25 | - | - | - | - | fungizider Effekt | - | + | - (weniger als 75 % Wachstumshemmung im Vergleich zur Kontrolle) | - (weniger als 75 % Wachstumshemmung im Vergleich zur Kontrolle) | - (weniger als 75 % Wachstumshemmung im Vergleich zur Kontrolle) | - (weniger als 75 % Wachstumshemmung im Vergleich zur Kontrolle) | - (weniger als 75 % Wachstumshemmung im Vergleich zur Kontrolle) | Wirksamkeit gegenüber P. infestans ([2]; […]): keine Wirkung; Aktivität im Wachstumstest mit M. miehei ([6]; […]): mikrobizide Wirksamkeit; Aktivität gegenüber Nutzpflanzen: S. italica ([8]; 50µg/R): - (weniger als 75 % Wachstumshemmung im Vergleich zur Kontrolle); inhibition of growth at 5 µg/mL [9]: 0 to 25%; inhibition of growth at 10 µg/mL [9]: 0 to 25%; inhibition of growth at 25 µg/mL [9]: 0 to 25%; inhibition of growth at 50 µg/mL [9]: 0 to 25%; Aktivität gegenüber P. notatum ([10]; 10µg/mL): -; Aktivität gegenüber P. notatum ([10]; 50µg/mL): -; inhibition of growth at 5 µg/mL [11]: 25 to 50%; inhibition of growth at 10 µg/mL [11]: > 75%; inhibition of growth at 25 µg/mL [11]: > 75%; inhibition of growth at 50 µg/mL [11]: > 75%
